Assay results reported in patent US20020028938A1, “Prostaglandin endoperoxide H synthase biosynthesis inhibitors” (priority 1997, published 2002).

Assays:
[1] = target: T1, recombinant human Cox-1 (r-hu Cox1) (Homo sapiens, UniProt P23219); assay: Recombinant human PGHS-1 enzyme assay (RHUCX1); assay type: biochemical
T1 construct: made in house; host or cells: baculovirus/Sf9 insect cells (microsomes)
Outline: (§1)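 IC50 values come from linear regression of percent inhibition, itself calculated against the mean of untreated controls. The underlying signal is PGE2, determined by EIA after a brief room-temperature reaction (2.5 minutes) terminated with acid and then base-neutralized.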

[2] = target: T2, recombinant human Cox-2 (r-hu Cox-2) (Homo sapiens, UniProt P35354); assay: Recombinant human PGHS-2 enzyme assay (RHUCX2); assay type: biochemical; conditions: for IC50: read-out: RHUCX2 IC50 (parenthetical value)
T2 construct: made in house; host or cells: baculovirus/Sf9 insect cells (microsomes)
T2 sequence (P35354 18-604): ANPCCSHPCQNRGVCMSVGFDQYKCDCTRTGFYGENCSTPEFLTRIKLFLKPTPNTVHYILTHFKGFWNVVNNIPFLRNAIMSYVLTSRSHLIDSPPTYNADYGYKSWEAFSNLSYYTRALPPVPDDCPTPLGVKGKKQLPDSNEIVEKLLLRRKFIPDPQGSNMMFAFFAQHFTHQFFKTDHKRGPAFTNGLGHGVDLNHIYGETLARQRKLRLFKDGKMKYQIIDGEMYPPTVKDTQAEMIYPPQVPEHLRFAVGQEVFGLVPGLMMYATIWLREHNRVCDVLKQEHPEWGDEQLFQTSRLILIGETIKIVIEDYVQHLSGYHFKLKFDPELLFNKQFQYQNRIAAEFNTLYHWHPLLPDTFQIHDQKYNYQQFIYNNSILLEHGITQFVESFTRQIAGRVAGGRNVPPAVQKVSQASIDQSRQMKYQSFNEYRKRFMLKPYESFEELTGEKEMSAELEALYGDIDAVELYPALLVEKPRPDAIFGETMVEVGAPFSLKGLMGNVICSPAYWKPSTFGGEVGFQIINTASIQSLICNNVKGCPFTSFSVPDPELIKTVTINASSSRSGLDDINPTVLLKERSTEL
Outline: as §1

[3] = target: T3, human amnionic whole cell cyclooxygenase-2 (WISH cells) (Homo sapiens, UniProt P35354); assay: IL-1β induced PGE2 production in WISH cells; assay type: cell-based; conditions: for IC50: read-out: Wish IC50 (parenthetical value); for inhibition at 0.01 µM / inhibition at 0.1 µM / inhibition at 1 µM: read-out: Wish % Inhib. at Dose
T3 construct: endogenous in cells; host or cells: human amnionic WISH cells, induced with IL-1beta
T3 sequence (P35354 18-604): T2 sequence (P35354 18-604)
Procedure: EIA reagents for prostaglandin determination were purchased from Perseptive Diagnostics, (Cambridge, Mass.). Prostaglandin E2 (PGE2) levels in lavage fluids were determined after the samples were dried under nitrogen and reconstituted with assay buffer. PGE2 levels in enzyme assays or cell culture media were measured against standards prepared in the same milieu. The immunoassays were conducted as recommended by the manufacturer. The EIA was conducted in 96 well microtiter plates (Nunc Roskilde, Denmark) and optical density was measured using a microplate reader (Vmax, Molecular Devices Corp., Menlo Park, Calif.).
Human amnionic WISH cells were grown to 80% confluence in 48 well plates. Following removal of the growth medium and two washings with Geys Balanced Salt Solutn, 5 ng IL-1β /ml (UBI, Lake Placid, N.Y.) was added to the cells with or without test compound in DMSO (0.01% v/v) in Neuman-Tytell Serumless Medium (GIBCO, Grand Island, N.Y.).

[4] = 100 μM, read-out: RHUCX1 % Inh. at Dose
[5] = read-out: RHUCX2 % Inh. at Dose

T1 sequence (P23219 24-599): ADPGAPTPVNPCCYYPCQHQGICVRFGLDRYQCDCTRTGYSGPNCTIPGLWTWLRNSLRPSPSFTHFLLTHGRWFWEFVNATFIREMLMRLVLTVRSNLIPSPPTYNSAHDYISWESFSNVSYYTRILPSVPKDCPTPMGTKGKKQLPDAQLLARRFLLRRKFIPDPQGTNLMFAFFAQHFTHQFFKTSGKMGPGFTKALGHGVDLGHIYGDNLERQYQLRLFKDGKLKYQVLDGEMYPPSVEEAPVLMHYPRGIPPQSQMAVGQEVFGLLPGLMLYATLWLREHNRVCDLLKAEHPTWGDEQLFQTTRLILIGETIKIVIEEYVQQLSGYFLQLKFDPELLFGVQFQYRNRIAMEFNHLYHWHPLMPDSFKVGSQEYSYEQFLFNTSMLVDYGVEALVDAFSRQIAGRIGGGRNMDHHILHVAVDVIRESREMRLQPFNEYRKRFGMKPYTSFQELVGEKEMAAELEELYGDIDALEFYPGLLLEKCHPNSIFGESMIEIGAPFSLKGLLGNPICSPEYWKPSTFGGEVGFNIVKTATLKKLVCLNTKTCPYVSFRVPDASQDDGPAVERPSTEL

| SMILES | inhibition at 100 µM [1, 4] [%] | inhibition at 0.1 µM [2, 5] [%] | IC50 [3] [nM] | melting point [°C] | IC50 [2] [nM] | other results |
| --- | --- | --- | --- | --- | --- | --- |
| CS(=O)(=O)c1ccc(-c2cnn(Cc3ccccc3)c(=O)c2-c2ccc(Cl)c(Cl)c2)cc1 [Example 65, 2-Benzyl-4-(3,4-dichlorophenyl)-5-[4-(methylsulfonyl)phenyl]-3(2H)-pyridazinone] | 13 | 65 | 20 | 161 to 163 |  | inhibition at 1 µM [2, 5]: 98% |
| CC1(COc2c(-c3ccc(S(C)(=O)=O)cc3)cnn(CC(F)(F)F)c2=O)CC1 [Example 279] | 0 | 31 | 391 | 98 to 99 |  | inhibition at 1 µM [2, 5]: 60% |
| COc1ccc(Oc2c(-c3ccc(S(C)(=O)=O)cc3)cnn(-c3cccc(Cl)c3)c2=O)cc1 [Example 345, 2-(3-Chloroophenyl)-4-(4-methoxyphenoxy)-5-[4-(methylsulfonyl)phenyl]-3(2H)-pyridazinone] | 0 |  | 30 | 182 to 184 | 242 |  |
| CS(=O)(=O)c1ccc(-c2cnn(Cc3ccccc3)c(=O)c2-c2cccc([N+](=O)[O-])c2)cc1 [Example 321, 2-Benzyl-4-(3-nitrophenyl)-5-[4-(methylsulfonyl)phenyl]-3(2H)-pyridazinone] | 4 |  |  |  | 192 | inhibition at 0.01 µM ([3]; 0.01 μM): 50% |
| CN(C)c1cccc(Oc2c(-c3ccc(S(C)(=O)=O)cc3)cnn(-c3cccc(Cl)c3)c2=O)c1 [Example 344, 2-(3-Chlorophenyl)-4-[3-(dimethylamino)phenoxy]-5-[4-(methylsulfonyl)phenyl]-3(2H)-pyridazinone] | 16 |  | 100 | 191 to 193 | 897 |  |
| CC(C)CCCOc1c(-c2ccc(S(C)(=O)=O)cc2)cnn(-c2ccc(F)cc2)c1=O [Example 414, 2-(4-Fluorophenyl)-4-(4-methylpentyloxy)-5-[4-(methylsulfonyl)phenyl]-3(2H)-pyridazinone] | 0 | 76 |  | 123 to 125 |  | inhibition at 1 µM [2, 5]: 87%; inhibition at 0.1 µM [3]: 46%; inhibition at 1 µM [3]: 54% |
| CS(=O)(=O)c1ccc(-c2cnn(Cc3ccccc3)c(=O)c2-c2ccc(C(F)(F)F)cc2)cc1 [Example 323, 2-Benzyl-4-(4-trifluormethylphenyl)-5-[4-(methylsulfonyl)phenyl]-3(2H)-pyridazinone] |  |  |  |  | 365 | RHUCX1 % Inh. at Dose (μM) ([1]; 100 μM): 1 @ 100%; Wish % Inhib. at Dose (μM) ([3]; 0.01 μM): 57 @ 0.01% |
| CS(=O)(=O)c1ccc(-c2cnn(C3CCc4ccccc43)c(=O)c2-c2ccc(F)cc2)cc1 (stereo not shown) [Example 129, 2-(2,3-Dihydro-1H-inden-1-yl)-4-(4-fluorop,henyl)-5-[4-(methylsulfonyl)phenyl]-3(2H)-pyridazinone] |  |  | 40 | 128 to 130 |  |  |
| CC(C)CSCc1c(-c2ccc(S(C)(=O)=O)cc2)cnn(-c2ccc(F)cc2)c1=O [Example 198, 2-(4-Fluorophenyl)-4-(2-methylpropylthiomethyl)-5-[4-(methylsulfonyl)phenyl]-3(2H)-pyridazinone] | 10 | 23 | 184 | 45 to 60 |  | inhibition at 1 µM [2, 5]: 68% |
| COC(Cn1ncc(-c2ccc(S(C)(=O)=O)cc2)c(-c2ccc(F)cc2)c1=O)c1ccccc1 (stereo not shown) [Example 442, 2-(2-Methoxy-2-phenylethyl)-4-(4-fluorophenyl)-5-[4-(methylsulfonyl)phenyl]-3(2H)-pyridazinone] | 55 | 90 | 420 | 135 to 137 |  | inhibition at 0.01 µM ([2]; 0.01 μM, read-out: RHUCX2 % Inh. at Dose): 56% |
| NS(=O)(=O)c1ccc(-c2cnn(CC=C(F)F)c(=O)c2-c2ccc(F)cc2)cc1F [Example 408] | 0 |  | 29 | 180 to 183 | 279 |  |
| CS(=O)(=O)c1ccc(-c2cnn(CC(F)(F)F)c(=O)c2OC2CCCC2)cc1 [Example 85, 2-(2,2,2-Trifluoroethyl)-4-cyclopentyloxy-5-[4-(methylsulfonyl)phenyl]-3(2H)-pyridazinone] |  |  | 470 | 148 to 150 |  |  |
| CS(=O)(=O)c1ccc(-c2cnn(-c3cccc(Cl)c3)c(=O)c2Sc2ccccn2)cc1 [Example 358, 2-(3-Chlorophenyl)-4-(2-pyridylthio)-5-[4-(methylsulfonyl)phenyl]-3(2H)-pyridazinone] | 30 |  |  | 110 to 114 | 2450 | inhibition at 0.1 µM [3]: 0%; inhibition at 1 µM [3]: 69% |
| C=Cc1cccc(-n2ncc(-c3ccc(S(C)(=O)=O)cc3)c(-c3ccc(F)cc3)c2=O)c1 [Example 162, 2-(3-Vinylphenyl)-4-(4-fluorophenyl)-5-[4-(methylsulfonyl)phenyl]-3(2H)-pyridazinone] |  |  | 34 | 182 to 183 |  |  |
| CS(=O)(=O)c1ccc(-c2cnn(-c3ccc(F)c(F)c3)c(=O)c2Cc2ccc(F)cc2)cc1 [Example 171, 2-(3,4-Difluorophenyl)-4-(4-fluorobenzyl)-5-[4-(methylsulfonyl)phenyl]-3(2H)-pyridazinone] | 0 | 61 |  | 157 to 159 |  | inhibition at 1 µM [2, 5]: 74%; inhibition at 10 µM ([2]; 10 μM, read-out: RHUCX2 % Inh. at Dose): 82%; inhibition at 0.1 µM [3]: 56%; inhibition at 1 µM [3]: 90% |
| CC(C)=CCCOc1c(-c2ccc(S(N)(=O)=O)cc2)cnn(-c2ccc(F)c(F)c2)c1=O [Example 410] |  |  | 53 |  |  | RHUCX1 % Inh. at Dose (μM) ([1]; 10 μM): 1 @ 10%; RHUCX1 % Inh. at Dose (μM) ([1]; 100 μM): 48 @ 100%; RHUCX2 % Inh. at Dose (μM) ([2]; 0.017 μM): 47 @ 0.017%; RHUCX2 % Inh. at Dose (μM) ([2]; 0.035 μM): 67 @0 .035% |
| CS(=O)(=O)c1ccc(-c2cnn(-c3cccc(Cl)c3)c(=O)c2Cc2cccc(F)c2)cc1 [Example 241, 2-(3-Chlorophenyl)-4-(3-fluorobenzyl)-5-[4-(methylsulfonyl)phenyl]-3(2H)-pridazinone] | 0 |  | 47.4 | 142 to 143 | 28 |  |
| CS(=O)(=O)c1ccc(-c2cnn(C3C4CC5CC(C4)CC3C5)c(=O)c2-c2ccc(F)cc2)cc1 (stereo not shown) [Example 132, 2-(2-Adamantyl)-4-(4-fluorophenyl)-5-[4-(methylsulfonyl)phenyl]-3(2H)-pyridazinone] |  | 43 |  | 195 to 197 |  | inhibition at 1 µM ([1]; 1 μM, read-out: RHUCX1 % Inh. at Dose): 93%; inhibition at 1 µM [2, 5]: 88%; inhibition at 0.01 µM ([3]; 0.01 μM): 36%; inhibition at 0.1 µM [3]: 100% |
| C=Cc1ccc(-c2c(-c3ccc(S(C)(=O)=O)cc3)cnn(Cc3ccccc3)c2=O)cc1 [Example 322, 2-Benzyl-4-(4-vinylphenyl)-5-[4-(methylsulfonyl)phenyl]-3(2H)-pridazinone] | 39 |  | 26 |  | 58 | inhibition at 10 µM ([1]; 10 μM, read-out: RHUCX1 % Inh. at Dose): 54% |
| NS(=O)(=O)c1ccc(-c2cnn(Cc3cc(F)c(F)cc3F)c(=O)c2-c2ccc(F)cc2)cc1 [Example 152, 2-(2,4,5-Trifluorobenzyl)-4-(4-fluorophenyl)-5-[4-(aminosulfonyl)phenyl]-3(2H)-pyridazinone] |  |  | 29 | 236 to 238 |  |  |
| CS(=O)(=O)c1ccc(-c2cnn(-c3ccc(F)c(Cl)c3)c(=O)c2-c2ccc(Cl)cc2)cc1 [Example 102, 2-(3-Chloro-4-fluorophenyl)-4-(4-chlorophenyl)-5-[4-(methylsulfonyl)phenyl]-3(2H)-pyridazinone] |  |  | 50 | 205 |  |  |
